According to US11491150B2, “Organic compounds” (INTRA-CELLULAR THERAPIES, INC., priority 2017, dated 2022):
Read-outs that look alike come from different tables or passages of the source.

Columns and labels:
muscle-type nAChRs = experiment: Binding at 10 μM to muscle-type nAChRs (selectivity test)
Experimental: (§1) The selectivity of these compounds is measured on the neuronal α4β2 and the muscle-type nAChRs using methods known in the art.

[1] = Pharmacokinetic study, brain penetrability after oral administration; assay type: in vivo; conditions: mouse, male C57B1/6 mice, oral 10 mg/kg, t=2 h
Experimental: The pharmacokinetic (PK) study of compounds are performed in male C57B1/6 mice (n=3 per time point) after an oral administration at 10 mg/kg to evaluate the brain penetrability. The concentrations of representative Compound 16 in brain and plasma are 0.15 μM and 0.2 μM at time t=2 h, respectively. The tmax of Compound Q is probably longer than 2 h.

α7 nAChR = α7 nAChR (Homo sapiens, UniProt P36544); experiment: Binding at 10 μM to α7 nAChR (selectivity test)
Chain of α7 nAChR (P36544 23-502): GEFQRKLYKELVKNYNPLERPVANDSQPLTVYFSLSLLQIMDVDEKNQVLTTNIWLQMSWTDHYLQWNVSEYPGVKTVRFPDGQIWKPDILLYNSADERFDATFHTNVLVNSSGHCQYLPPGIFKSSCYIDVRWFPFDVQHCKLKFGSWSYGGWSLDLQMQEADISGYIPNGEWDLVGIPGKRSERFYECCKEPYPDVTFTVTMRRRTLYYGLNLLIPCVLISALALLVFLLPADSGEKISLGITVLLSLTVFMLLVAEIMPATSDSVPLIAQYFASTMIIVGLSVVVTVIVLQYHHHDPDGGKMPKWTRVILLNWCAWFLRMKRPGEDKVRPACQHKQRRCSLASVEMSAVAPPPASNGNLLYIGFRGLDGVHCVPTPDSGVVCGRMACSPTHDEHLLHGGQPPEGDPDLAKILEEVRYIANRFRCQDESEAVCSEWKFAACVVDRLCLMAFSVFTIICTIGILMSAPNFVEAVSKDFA

neuronal α4β2 nAChR = neuronal α4β2 nAChR (Homo sapiens, UniProt P17787+P43681); experiment: Binding at 10 μM to neuronal α4β2 nAChR (selectivity test)
Chain of neuronal α4β2 nAChR (P43681 29-627 limits assumed): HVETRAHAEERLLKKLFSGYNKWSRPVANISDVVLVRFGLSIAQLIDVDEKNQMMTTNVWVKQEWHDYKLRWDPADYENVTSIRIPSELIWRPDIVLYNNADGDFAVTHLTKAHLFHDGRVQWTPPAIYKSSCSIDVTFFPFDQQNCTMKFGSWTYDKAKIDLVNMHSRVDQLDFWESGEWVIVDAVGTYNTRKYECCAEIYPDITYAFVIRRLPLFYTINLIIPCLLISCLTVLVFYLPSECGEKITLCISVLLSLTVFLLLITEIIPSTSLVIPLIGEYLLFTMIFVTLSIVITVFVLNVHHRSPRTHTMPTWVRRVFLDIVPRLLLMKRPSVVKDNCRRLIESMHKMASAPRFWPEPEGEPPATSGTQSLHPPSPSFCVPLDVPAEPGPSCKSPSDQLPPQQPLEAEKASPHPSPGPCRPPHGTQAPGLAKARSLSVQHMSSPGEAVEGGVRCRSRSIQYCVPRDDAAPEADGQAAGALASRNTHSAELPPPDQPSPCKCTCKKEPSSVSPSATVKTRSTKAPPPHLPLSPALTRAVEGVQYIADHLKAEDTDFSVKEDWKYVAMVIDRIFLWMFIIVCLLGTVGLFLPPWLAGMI
Chain of neuronal α4β2 nAChR (P17787 26-502): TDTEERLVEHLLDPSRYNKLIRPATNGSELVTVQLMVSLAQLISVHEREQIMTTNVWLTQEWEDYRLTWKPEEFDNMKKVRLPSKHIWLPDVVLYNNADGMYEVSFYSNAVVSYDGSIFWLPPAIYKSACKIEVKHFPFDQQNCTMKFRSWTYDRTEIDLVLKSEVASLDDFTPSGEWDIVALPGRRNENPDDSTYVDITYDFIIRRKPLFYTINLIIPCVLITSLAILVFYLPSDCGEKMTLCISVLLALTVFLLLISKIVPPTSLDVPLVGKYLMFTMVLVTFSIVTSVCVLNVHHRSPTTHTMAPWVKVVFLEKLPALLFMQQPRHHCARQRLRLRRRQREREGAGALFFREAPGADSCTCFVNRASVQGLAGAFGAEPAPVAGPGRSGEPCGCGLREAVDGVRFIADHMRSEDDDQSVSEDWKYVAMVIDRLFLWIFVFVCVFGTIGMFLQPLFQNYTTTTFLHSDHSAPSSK
Experimental: as §1

mouse model of diabetes = experiment: Nephropathy in streptozotocin mouse model of diabetes (eNOS-/- mice), α7-nAchR blocker; assay type: in vivo; conditions: blocker 2 mg/kg i.p. 5 days a week, 10 weeks; for Systolic BP: tail-cuff
Experimental: Normal mice express the α7-nAChR in both the proximal and distal tubule of the kidneys. Tests were conducted to determine the role of the α7-nAchR on the severity of nephropathy in a mouse model of diabetes. Diabetes mellitus (DM) was induced in all mice with streptozotocin (STZ). This test closely mimics diabetic […] in humans. Mice were either given nicotine (DN) in doses of […] in drinking water or tap water with no nicotine for a period of 10 weeks (DT). Targeted disruption of the endothelial nitric oxide synthase gene led to eNOS^-/- knockout in a group of mice to increase susceptibility of STZ in the mice. One group of eNOS^-/- knockout mice was also subjected to targeted disruption of the α7-nAchR gene, which led to eNOS^-/-/α7-nAchR^-/- double knockout mice (DN^-/- and DT^-/-). A separate group of eNOS^-/- mice also received a α7-nAchR blocker (DN+B and DT+B). The blocker used was Compound 17 at a dosage of 2 mg/kg given intraperitoneally for 5 days a week for a period of 10 weeks. Blood pressure was measured by tail-cuff method and urine was collected every 2 weeks for albuminuria.
All mice became diabetic after being administered STZ, and all mice were also hypertensive.

[2] = DN + B: diabetic eNOS-/- mice on nicotine
[3] = DT + B: diabetic eNOS-/- mice on tap water

| Compound | binding to muscle-type nAChRs (muscle-type nAChRs) | concentration at 2 h ([1]; brain, read-out: concentration in brain) [nM] | concentration at 2 h ([1]; plasma, read-out: concentration in plasma) [nM] | binding to the α7 receptor (α7 nAChR) [%] | binding to the neuronal α4β2 nAChR (neuronal α4β2 nAChR) | Albuminuria (mouse model of diabetes; [2]) [ng/ml/24 hr] | Blood Glucose (mouse model of diabetes; [2]) [mg/dL] | Systolic BP (mouse model of diabetes; [2]) [mmHg] | Albuminuria (mouse model of diabetes; [3]) [ng/ml/24 hr] | Blood Glucose (mouse model of diabetes; [3]) [mg/dL] | Systolic BP (mouse model of diabetes; [3]) [mmHg] |
| --- | --- | --- | --- | --- | --- | --- | --- | --- | --- | --- | --- |
| CN(CC1CC[N+](C)(Cc2ccccc2)CC1)C(=O)c1cn(Cc2ccccc2Cl)nn1 (centres unmarked) [Compound 16] | no detectable binding | 150 | 200 | 92 | no detectable binding |  |  |  |  |  |  |
| NS(=O)(=O)c1ccc(Cn2ncc(C(=O)NCC3CCN(Cc4ccccc4)CC3)n2)cc1 [Compound 17] |  |  |  |  |  | 35 ± 6 | 441 ± 43 | 142 ± 13 | 50 ± 13 | 354 ± 51 | 150 ± 11 |
